The target of this assay is T1, human μ opiate receptor (Homo sapiens, UniProt P35372).
T1 construct: purchased PerkinElmer Life Sciences, Zaventem, Belgium RB-HOM; host or cells: CHO-K1 cells (membrane preparation)
Description: Affinity for the human μ opiate receptor ([3H]-naloxone displacement, CHO-K1 receptor membrane preparation, SPA). In kind it is binding. The following applies: test concentration of 1 μM. Summed up:
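Displacement of 1 nmol/l [3H]-naloxone measured by SPA counting after 90 min at room temperature, using human μ receptor CHO-K1 membrane preparation in Tris-HCl buffer with 0.06% BSA. Test substances at 1 μmol/l give % inhibition; dilution series yield IC50, then Ki (Cheng-Prusoff); non-specific binding with 100 μmol/l naloxone.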

These results are taken from patent US8106055B2, “Substituted amide compounds” (Gruenenthal GmbH, priority 2007, dated 2012).

T1 sequence (P35372 whole entry): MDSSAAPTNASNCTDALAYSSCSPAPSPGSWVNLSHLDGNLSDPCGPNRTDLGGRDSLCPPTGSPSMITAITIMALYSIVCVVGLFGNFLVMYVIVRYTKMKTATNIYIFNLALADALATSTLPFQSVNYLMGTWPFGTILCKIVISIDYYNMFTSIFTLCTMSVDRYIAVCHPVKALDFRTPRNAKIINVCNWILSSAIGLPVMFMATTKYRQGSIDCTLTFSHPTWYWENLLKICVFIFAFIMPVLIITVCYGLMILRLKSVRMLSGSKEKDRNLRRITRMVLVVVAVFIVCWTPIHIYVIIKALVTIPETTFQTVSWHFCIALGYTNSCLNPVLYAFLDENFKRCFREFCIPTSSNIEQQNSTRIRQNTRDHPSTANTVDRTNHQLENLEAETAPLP

For the compound `CN(C)C(c1ccc(Cl)cc1)C1CCC(CNC(=O)COCCN(Cc2ccccc2)S(=O)(=O)c2ccccc2)CC1` (stereo not drawn) [Example 343], the “μ (binding on the μ opioid receptor, % inhibition)” value stood at 62%.

Consider `CN(C)C(c1ccc(F)cc1)C1CCC(NC(=O)COCC2CCCN2S(=O)(=O)c2ccc(Cl)c(Cl)c2)CC1` (stereo not drawn) [Example 344], for which the “μ (binding on the μ opioid receptor, % inhibition)” value stood at 64%.

Turning to `COc1ccc(S(=O)(=O)N2CCCCC2COCC(=O)NCC2CCC(C(c3ccc(F)cc3)N(C)C)CC2)cc1` (stereo not drawn) [Example 345], the “μ (binding on the μ opioid receptor, % inhibition)” value is 64%.

`COc1ccc(S(=O)(=O)N2CCCC2COCC(=O)NCCC2CCC(C(c3ccc(Cl)cc3)N(C)C)CC2)cc1` (stereo not drawn) [Example 346]: the “μ (binding on the μ opioid receptor, % inhibition)” value came out at 63%.

Turning to `CN(C)C(c1ccc(Cl)cc1)C1CCC(CCNC(=O)COCCN(C)S(=O)(=O)c2ccc(Cl)cc2)CC1` (stereo not drawn) [Example 347], the “μ (binding on the μ opioid receptor, % inhibition)” value worked out at 63%.

Turning to `COc1cc(C)c(S(=O)(=O)N(C)CCOCC(=O)NCC2CCC(C(c3ccc(Cl)cc3)N(C)C)CC2)c(C)c1` (stereo not drawn) [Example 348], the “μ (binding on the μ opioid receptor, % inhibition)” value is given as 61%.

Consider `COc1ccc(S(=O)(=O)N2CCCCC2COCC(=O)NCCC2CCC(C(c3ccc(F)cc3)N(C)C)CC2)cc1` (stereo not drawn) [Example 349], for which the “μ (binding on the μ opioid receptor, % inhibition)” value is recorded as 66%.

`COc1ccc(S(=O)(=O)N2CCCCC2CCOCC(=O)NCC2CCC(C(c3ccc(F)cc3)N(C)C)CC2)cc1` (stereo not drawn) [Example 350]: the “μ (binding on the μ opioid receptor, % inhibition)” value came to 61%.

Take `COc1ccc(S(=O)(=O)N2CCCC2COCC(=O)NCC2CCC(C(c3ccc(Cl)cc3)N(C)C)CC2)cc1` (stereo not drawn) [Example 351]: the “μ (binding on the μ opioid receptor, % inhibition)” value was found to be 63%.

Turning to `COc1ccc(S(=O)(=O)N2CCCCC2COCC(=O)NC2CCC(C(c3cccc(F)c3)N(C)C)CC2)cc1OC` (stereo not drawn) [Example 352], the “μ (binding on the μ opioid receptor, % inhibition)” value is reported as 65%.

Regarding `COc1cc(C)c(S(=O)(=O)N(C)CCOCC(=O)NCCC2CCC(C(c3ccc(F)cc3)N(C)C)CC2)c(C)c1C` (stereo not drawn) [Example 354], the “μ (binding on the μ opioid receptor, % inhibition)” value is 61%.

Take `CN(C)C(c1cccc(F)c1)C1CCC(CNC(=O)COC2CCN(S(=O)(=O)c3ccccc3)C2)CC1` (stereo not drawn) [Example 355]: the “μ (binding on the μ opioid receptor, % inhibition)” value was 66%.

Turning to `CN(C)C(c1ccc(F)cc1)C1CCC(NC(=O)COCCN(C)S(=O)(=O)c2ccc(Cl)cc2Cl)CC1` (stereo not drawn) [Example 356], the “μ (binding on the μ opioid receptor, % inhibition)” value amounted to 55%.

As to `CN(C)C(c1ccc(F)cc1)C1CCC(NC(=O)COCCN(C)S(=O)(=O)c2ccc(F)cc2)CC1` (stereo not drawn) [Example 357], the “μ (binding on the μ opioid receptor, % inhibition)” value stood at 57%.

On to `COc1cc(C)c(S(=O)(=O)N(CCOCC(=O)NCCC2CCC(C(c3cccc(F)c3)N(C)C)CC2)Cc2ccccc2)c(C)c1` (stereo not drawn) [Example 358], for which the “μ (binding on the μ opioid receptor, % inhibition)” value is 71%.

For `CN(C)C(c1ccc(F)cc1)C1CCC(CNC(=O)COC2CCCCC2N(C)S(=O)(=O)c2ccc(Cl)c(Cl)c2)CC1` (stereo not drawn) [Example 359], the “μ (binding on the μ opioid receptor, % inhibition)” value is reported as 60%.

For `CN(C)C(c1ccc(F)cc1)C1CCC(NC(=O)COCCN(C)S(=O)(=O)c2ccc(OC(F)(F)F)cc2)CC1` (stereo not drawn) [Example 361], the “μ (binding on the μ opioid receptor, % inhibition)” value is recorded as 59%.

For `Cc1ccc(S(=O)(=O)N(C)CCOCC(=O)NCC2CCC(C(c3ccc(F)cc3)N(C)C)CC2)cc1` (stereo not drawn) [Example 362], the “μ (binding on the μ opioid receptor, % inhibition)” value is 54%.
